≈ marks a conversion by molar mass, not a printed value.
How the values were obtained:
[1] = tested on: M. abscessus; experiment: Antimycobacterial MIC / primary screening, MABA; format: cell-based; details: Mycobacteroides abscessus, read-out: MIC M. abscessus
[2] = tested on: L929 cells; experiment: Cytotoxicity, MTT protocol (ISO 10993-5:2009(E)); format: cell-based; details: ratio to MIC against M. tuberculosis
Procedure: This evaluation adhered precisely to international standards (ISO 10993-5:2009(E)), employing L929 cells and the MTT protocol ([Bekier et al., 2021]). The determination of the half maximal inhibitory concentration (IC50) values was carried out for 12 out of the 13 compounds tested, considering the occurrence of derivative precipitation in the growth medium for L929 cells (Table 1). […] For two compounds (5g and 5i), the discriminatory index (IC50/MIC) was identified at the level of 20.

[3] = molecular target: MTB InhA (Mycobacterium tuberculosis, UniProt P9WGR1); experiment: InhA inhibition endpoint assay; format: biochemical; details: read-out: IC50 against InhA
Chain of MTB InhA (P9WGR1 whole entry, looked up): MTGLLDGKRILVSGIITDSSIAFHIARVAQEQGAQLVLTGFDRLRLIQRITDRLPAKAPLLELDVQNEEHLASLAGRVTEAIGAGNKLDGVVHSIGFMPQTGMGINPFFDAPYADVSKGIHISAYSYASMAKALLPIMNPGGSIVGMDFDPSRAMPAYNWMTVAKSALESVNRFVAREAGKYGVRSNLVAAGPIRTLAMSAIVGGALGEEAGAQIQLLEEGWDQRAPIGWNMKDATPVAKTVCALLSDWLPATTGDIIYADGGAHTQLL

[4] = tested on: M. tuberculosis H37Rv; experiment: Antimycobacterial MIC / primary screening, MABA (microplate alamar blue assay); format: cell-based; details: Mycobacterium tuberculosis
[5] = tested on: M. bovis BCG; experiment: microbe, parasite or virus in culture; format: cell-based; details: Mycobacterium tuberculosis variant bovis BCG, read-out: MIC M. bovis BCG
[6] = tested on: MTB; details: cited from earlier work

| Structure (SMILES) | melting point [°C] | MIC [1] [µg/mL] | IC50-L929/MIC Mtb (cytotoxicity / discriminatory index) [2] | IC50 [3] [nM] | MIC [4] [µg/mL] | MIC [5] [µg/mL] | MIC against MTB ([6]; ref Quimque et al., 2023) | MIC, tuberculosis ([6]; ref Gill et al., 2008) [µg/mL] | MIC, MTB H37Rv strain ([6]; MTB H37Rv, ref Boechat et al., 2011) [µg/mL] |
| --- | --- | --- | --- | --- | --- | --- | --- | --- | --- |
| Cc1c(-c2cc(C(=O)O)c3ccccc3n2)nnn1-c1ccc(Br)cc1 [Compound 5g, 2-(1-(4-Bromophenyl)-5-methyl-1H-1,2,3-triazol-4-yl)benzo [b]pyridine-4-carboxylic acid] | 228 to 229 | > 125 | 20 | 4130 ± 170 | 15 (≈ 36.7 µM) | < 125 |  |  |  |
| Cc1c(-c2cc(C(=O)O)c3cc(Cl)ccc3n2)nnn1-c1ccccc1 [Compound 5i, 6-Chloro-2-(5-methyl-1-phenyl-1H-1,2,3-triazol-4-yl)benzo [b]pyridine-4-carboxylic acid] | > 300 | > 125 | 20 | 11800 ± 490 | 15 (≈ 41.1 µM) | < 125 |  |  |  |
| Cc1c(-c2cc(C(=O)O)c3cc(Cl)ccc3n2)nnn1-c1ccc(Cl)cc1 [Compound 5n, 6-Chloro-2-(1-(4-chlorophenyl)-5-methyl-1H-1,2,3-triazol-4-yl)benzo [b]pyridine-4-carboxylic acid] |  | > 125 | 16 | 720 ± 30 | 12.5 (≈ 31.3 µM) | < 125 |  |  |  |
| Cc1c(-c2cc(C(=O)O)c3cc(Br)ccc3n2)nnn1-c1ccc(Br)cc1 [Compound 5w, 6-Bromo-2-(1-(4-bromophenyl)-5-methyl-1H-1,2,3-triazol-4-yl)benzo [b]pyridine-4-carboxylic acid] | > 300 | > 125 | 10 |  | 15 (≈ 30.7 µM) | < 125 |  |  |  |
| CC(C)c1ccc2nc(-c3ccc4ccc5ccccc5c4c3)cc(C(=O)O)c2c1 [Compound II] |  |  |  |  |  |  | around 16 μM |  |  |
| NNC(=O)c1ccncc1 [INH, isoniazid, reference compound] |  | 0.1 (≈ 0.729 µM) |  | 240 ± 10 | 0.1 (≈ 0.729 µM) | 0.05 (≈ 0.365 µM) |  |  |  |
| Fc1cccc(-c2nc3ccccc3n2Cc2cn(-c3ccc(F)cc3F)nn2)c1 [compound VII] |  |  |  |  |  |  |  | 6.25 (≈ 15.4 µM) |  |
| O=C(N/N=C/c1cn(-c2ccc(Cl)cc2)nn1)c1ccncc1 [compound VI] |  |  |  |  |  |  |  |  | 0.62 (≈ 1.9 µM) |
